Measurements taken from patent US20230183237A1, “COMPETITIVE AND NONCOMPETITIVE INHIBITORS OF THE MUSCARINIC ACETYLCHOLINE RECEPTOR M5” (Vanderbilt University, priority 2020, published 2023).
Like-named read-outs stand apart in the source and are kept apart here.

Target: T1, hM5 (Homo sapiens, UniProt P08912)
T1 construct: expressed in transfected cells
T1 sequence (P08912 1-532): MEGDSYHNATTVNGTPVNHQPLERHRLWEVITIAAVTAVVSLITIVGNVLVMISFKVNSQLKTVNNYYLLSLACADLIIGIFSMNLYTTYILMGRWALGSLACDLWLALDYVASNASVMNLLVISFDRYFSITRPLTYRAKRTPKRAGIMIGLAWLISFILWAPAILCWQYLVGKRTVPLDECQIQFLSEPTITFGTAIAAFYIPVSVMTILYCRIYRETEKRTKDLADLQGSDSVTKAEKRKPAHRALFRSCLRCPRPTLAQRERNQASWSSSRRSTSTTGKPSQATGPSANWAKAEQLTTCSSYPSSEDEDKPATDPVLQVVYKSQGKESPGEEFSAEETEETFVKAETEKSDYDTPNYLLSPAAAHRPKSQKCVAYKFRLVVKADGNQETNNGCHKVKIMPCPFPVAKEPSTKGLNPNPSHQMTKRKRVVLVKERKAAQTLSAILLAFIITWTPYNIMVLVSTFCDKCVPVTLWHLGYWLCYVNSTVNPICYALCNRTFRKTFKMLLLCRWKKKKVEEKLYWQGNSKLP
Assay: Calcium mobilization concentration-response (IC50 vs EC80 acetylcholine), CHO hM5
Type: cell-based
Conditions: CELL LINE hM5, read-out: IC50
Outline: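 CHO cells stably expressing hM5, dye-loaded, in HBSS/20 mM HEPES/2.5 mM probenecid, pH 7.4. Compounds were pre-incubated 140 s before an EC80 acetylcholine challenge, with calcium flux read kinetically.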

[1] = calcium mobilization, EC80 acetylcholine addition

Row | SMILES | IC50 (vs EC80 acetylcholine) | IC50 [1]
1 | Cc1cc(F)c(F)cc1C1=CCN(S(=O)(=O)c2cnn(C)c2C)CC1 [Compound 404, 4-(4,5-difluoro-2-methylphenyl)-1-((1,5-dimethyl-1H-pyrazol-4-yl)sulfonyl)-1,2,3,6-tetrahydropyridine] | 1540 nM | 
2 | Cc1sc(C#N)nc1C1=CCN(S(=O)(=O)c2ccc3c(c2)CCO3)CC1 [Compound 205, 4-(1-((2,3-dihydrobenzofuran-5-yl)sulfonyl)-1,2,3,6-tetrahydropyridin-4-yl)-5-methylthiazole-2-carbonitrile] |  | > 10000 nM
3 | Cc1nnc(S(=O)(=O)N2CCC(c3cn4ncnc4cc3Cl)CC2)o1 [Compound 607] | 151 nM | 
4 | [2H]C([2H])([2H])n1cc(S(=O)(=O)N2CCC(c3cn4ncnc4cc3F)CC2)c(Cl)n1 [Compound 259, 6-(1-((3-chloro-1-(methyl-d3)-1H-pyrazol-4-yl)sulfonyl)piperidin-4-yl)-7-fluoro-[1,2,4]triazolo[1,5-a]pyridine] |  | 3000 nM
5 | Cc1cc2ccnn2cc1C1CCN(S(=O)(=O)c2cnn(C)c2CC#N)CC1 [Compound 454, 2-(1-methyl-4-((4-(5-methylpyrazolo[1,5-a]pyridin-6-yl)piperidin-1-yl)sulfonyl)-1H-pyrazol-5-yl)acetonitrile] | > 10000 nM | 
6 | Cc1cc2ncnn2cc1C1CCN(S(=O)(=O)c2cnn(C)c2CN)CC1 [Compound 529, (1-methyl-4-((4-(7-methyl-[1,2,4]triazolo[1,5-a]pyridin-6-yl)piperidin-1-yl)sulfonyl)-1H-pyrazol-5-yl)methanamine] | 371 nM | 
7 | Cc1cc2ncnn2cc1C1CCN(S(=O)(=O)c2ccc3c(c2)N(C)CCO3)CC1 [Compound 121, 4-methyl-6-((4-(7-methyl-[1,2,4]triazolo[1,5-a]pyridin-6-yl)piperidin-1-yl)sulfonyl)-3,4-dihydro-2H-benzo[b][1,4]oxazine] |  | 343 nM
8 | Cc1cc2ccnn2cc1C1CCN(S(=O)(=O)c2cnn(C)c2C)CC1 [Compound 453, 6-(1-((1,5-dimethyl-1H-pyrazol-4-yl)sulfonyl)piperidin-4-yl)-5-methylpyrazolo[1,5-a]pyridine] | 216 nM | 

Next, values leading:

Row | IC50 (vs EC80 acetylcholine) | IC50 [1] | SMILES
9 |  | 86 nM | [2H]C1([2H])Oc2cc(C)c(C3CCN(S(=O)(=O)c4cnn5c4OCCC5)CC3)cc2OC1([2H])[2H] [Compound 393, 3-((4-(7-methyl-2,3-dihydrobenzo[b][1,4]dioxin-6-yl-2,2,3,3-d4)piperidin-1-yl)sulfonyl)-6,7-dihydro-5H-pyrazolo[5,1-b][1,3]oxazine]
10 |  | 1200 nM | Cc1cc2ncnn2cc1C1CCN(S(=O)(=O)c2cn(C(F)F)nc2C)CC1 [Compound 144, 6-(1-((1-(difluoromethyl)-3-methyl-1H-pyrazol-4-yl)sulfonyl)piperidin-4-yl)-7-methyl-[1,2,4]triazolo[1,5-a]pyridine]
11 |  | 253 nM | Cc1c(S(=O)(=O)N2CC=C(c3cc4ncnn4cc3Cl)CC2)cnn1C [Compound 142, 6-chloro-7-(1-((1,5-dimethyl-1H-pyrazol-4-yl)sulfonyl)-1,2,3,6-tetrahydropyridin-4-yl)-[1,2,4]triazolo[1,5-a]pyridine]
12 |  | > 10000 nM | Cc1nc(C)c(S(=O)(=O)N2CCC(c3cn4ncnc4cc3C)CC2C)s1 (centres unmarked) [Compound 360, 2,4-dimethyl-5-((2-methyl-4-(7-methyl-[1,2,4]triazolo[1,5-a]pyridin-6-yl)piperidin-1-yl)sulfonyl)thiazole]
13 |  | 96 nM | Cc1cc2ncnn2cc1C1CCN(S(=O)(=O)c2cnn(C)c2C(F)(F)F)CC1 [Compound 162, 7-methyl-6-(1-((1-methyl-5-(trifluoromethyl)-1H-pyrazol-4-yl)sulfonyl)piperidin-4-yl)-[1,2,4]triazolo[1,5-a]pyridine]
14 | > 10000 nM |  | Cc1ncc(S(=O)(=O)N2CCC(c3cnc(C(F)(F)F)cc3C)CC2)s1 [Compound 397, 2-methyl-5-((4-(4-methyl-6-(trifluoromethyl)pyridin-3-yl)piperidin-1-yl)sulfonyl)thiazole]
